Source: ChEMBL document CHEMBL4266028, “Salviachinensines A-F, Antiproliferative Phenolic Derivatives from the Chinese Medicinal Plant Salvia chinensis” (J Nat Prod, 2018)
The source made the active and inactive calls. No cut-off for these calls is given here.

Assays:
Type in all cases: functional, cell-based
[1] = system: MOLM-13; experiment: Antiproliferative activity against human MOLM13 cells by Cell-Titer Glo assay
[2] = system: MOLM-14; experiment: Antiproliferative activity against human MOLM14 cells by Cell-Titer Glo assay
[3] = system: MV4-11; experiment: Antiproliferative activity against human MV4-11 cells by Cell-Titer Glo assay
[4] = system: MOLM-13; experiment: Cell cycle arrest in human MOLM13 cells assessed as accumulation at G0/G1 phase at 5 uM by flow cytometry
[5] = system: MOLM-13; experiment: Induction of apoptosis in human MOLM13 cells assessed as increase in PARP cleavage at 5 uM after 24 hrs by Western blot analysis
[6] = system: MOLM-13; experiment: Induction of apoptosis in human MOLM13 cells assessed as increase in caspase-3 cleavage at 5 uM after 24 hrs by Western blot analysis

IC50 [1] | IC50 ([2]; Homo sapiens, MOLM-14) | IC50 [3] | Structure (SMILES) | IC50 ([2]; molm-14) | Activity [4] | Activity [5] | Activity [6]
7.5 µM | > 10 µM | > 10 µM | COC(=O)[C@H](O)Cc1ccc(O)c(O)c1 | – | – | – | –
6.7 µM | > 10 µM | > 10 µM | COC(=O)[C@@H](Cc1ccc(O)c(O)c1)OC(=O)/C=C/c1ccc(O)c(O)c1/C=C/c1ccc(O)c(O)c1 | – | – | – | –
2.9 µM | 7.1 µM | > 10 µM | O=C(/C=C/c1ccc(O)c(O)c1)O[C@H](Cc1ccc(O)c(O)c1)C(=O)O [ROSMARINIC ACID] | – | – | – | –
8.4 µM | > 10 µM | > 10 µM | COC(=O)[C@@H](Cc1ccc(O)c(O)c1)OC(=O)/C=C/c1ccc(O)c(O)c1 [METHYL ROSMARINATE] | – | – | – | –
2.3 µM | 7.1 µM | > 10 µM | O=C1C[C@H]2c3cc(O)c(O)cc3[C@H](c3ccc(O)c(O)c3)[C@H]2O1 | – | Active | Active | Active
< 0.001 µM | < 0.001 µM | < 0.001 µM | Nc1ccc(-c2ccc3ncc4ccc(=O)n(-c5cccc(C(F)(F)F)c5)c4c3c2)cn1 | – | – | – | –
5.2 µM | > 10 µM | > 10 µM | COC(=O)[C@H](O)Cc1ccc2c(c1)O[C@H]([C@H](OC)c1ccc(O)c(O)c1)O2 | – | – | – | –
6.4 µM | > 10 µM | > 10 µM | O=C(O)/C=C/c1ccc(O)c(O)c1 [CAFFEIC ACID] | – | – | – | –

Structure (SMILES) | IC50 [1] | IC50 ([2]; Homo sapiens, MOLM-14) | IC50 [3] | IC50 ([2]; molm-14) | Activity [4] | Activity [5] | Activity [6]
O=C(/C=C/c1ccc(O)c(O)c1/C=C/c1ccc(O)c(O)c1)O[C@H](Cc1ccc(O)c(O)c1)C(=O)O [SALVIANOLIC ACID A] | 2.5 µM | – | > 10 µM | 6.2 µM | – | – | –
